Experimental data published in patent publication US20210308138A1, “TISSUE TRANSGLUTAMINASE MODULATORS FOR MEDICINAL USE” (Aarhus Universitet, priority 2018, published 2021).
Entries after “also recorded” stand apart in the source; their conditions may differ.

Tests used:
[1] = tested on: small mesenteric arteries; test: Acetylcholine-induced endothelium-dependent relaxation of phenylephrine pre-contracted small mesenteric arteries, isometric myograph (ex vivo); set-up: species or system Male Wistar rats
Procedure: Small mesenteric arteries were mounted in microvascular myographs (Danish Myotechnology, Aarhus, Denmark) using two 40 μm wires and stretched to their optimal diameter for isometric tension recordings, which corresponded to 0.9 times the estimated internal diameter at 100 mmHg of transmural pressure. PSS solution in the myograph bath was heated to 37° C. and continuously bubbled with 5% CO2 in air to maintain pH (7.4). The vessel viability was tested at the beginning of each experiment by measuring the vasoconstrictor responses to a solution with a high K^+ concentration (KPSS), equivalent to PSS except that NaCl was exchanged for KCl on an equimolar basis, giving a final concentration of 123.7 mmol/L K^+ and the presence of endothelium was confirmed by addition of acetylcholine (ACh) (10^−5) after pre-constriction with noradrenaline (5·10^−6 mol/L), arteries with less than 75% of relaxation were discarded.
Mesenteric arteries from rats of different age were incubated with (10^−6 mol/L) LDN-27219 or vehicle for 25 minutes and pre-contracted with phenylephrine (Phe) (10^−5 mol/L). Then cumulative addition of acetylcholine (ACh) caused the relaxation of the mesenteric arteries and the concentration-response curves were constructed.
Rats of 5-7 weeks age, about 12 weeks age, and more than 30 weeks of age were tested respectively. The results of the isometric tension studies are shown in FIGS. 1, A), B) and C) respectively, each representing a different their age group.
The small mesenteric arteries were prepared in the same way is described in example 1.

Male Wistar rats = test: Mean arterial pressure (MAP) in vivo measurement after intrajugular infusion
Procedure: For ‘in vivo’ experiments Wistar rats of different age were fasted 8 h before anesthesia with 35 mg/kg of S-ketamine and 50 mg/kg of pentobarbital sodium administered intraperitoneally.
Male Wistar rats with 12-14 and 30-35 weeks of age were anesthetized with s-ketamine (35 mg/kg) and pentobarbital (50 mg/kg) and placed on a heated blanket to maintain body temperature at 37° C. ECG needles were installed for electrocardiographic measurements and a solid state catheter (Millar Inc, Houston, USA) was introduced into the carotid artery to measure MAP. MAP and electrocardiographic data was continuously recorded on a computerized data acquisition system (PowerLab, ADInstruments). Adequate depth of anesthesia was checked periodically by the absence of the toe pinch withdrawal effect and ⅓ of the initial dose of anesthetics was administered intraperitoneally when needed (usually each 1½ h). Changes in MAP and electrocardiographic signal in response to intrajugular infusion during 3 minutes of different doses of LDN-27219 and the corresponding vehicle (PEG-400) were studied.
The Area Under the Curve (AUC) was calculated using Graphpad Prism 5.1 (GraphPad Software, San Diego, Calif., USA) for each response to the change in MAP that was collected during the experiments in example 3. The AUC gives information about the maximal response, and about the duration of the effect.
Rats of different age in these experiments were anesthetized, prepared and catheterized as described in Example 3.

[2] = Pharmacokinetic study, single intravenous dose, non-compartmental model; assay type: in vivo; conditions: mouse, blood, single 2 mg/kg intravenous dose, mice
[3] = tested on: small subcutaneous arteries obtained from human biopsies; test: Acetylcholine-induced relaxation of human small subcutaneous arteries; conditions: LDN-27219 3·10^−6 mol/L; acetylcholine 10^−8-10^−5 mol/L
Procedure: Human subcutaneous arteries were obtained from fat biopsies of the gluteal region from both male and female patients (30-70 years of age) with essential hypertension.
For ‘ex vivo’ studies, animals were randomly selected and euthanized by cervical dislocation and exanguination. The mesenteric arteries were immediately extracted and placed in 4° C. physiological saline solution (PSS, pH=7.4) of the following composition (mmol/L): 119 NaCl, 4.7 KCl, 1.18 KH2PO4, 1.17 MgSO4, 1.5 CaCl2), 24.9 NaHCO3, 0.026 EDTA and 5.5 glucose and small mesenteric arteries (internal diameters of 200-300 μm) were isolated. Human subcutaneous arteries (internal diameters of 300-400 μm) were dissected from the biopsies in the same conditions mentioned above for the mesenteric bed from rodents.
Small human subcutaneous arteries were obtained from fat biopsies from the gluteal region of hypertensive patients and prepared as described in Example 1. Concentration-response curves for LDN-27219 were constructed as described in Example 4 (FIG. 5B) and relaxation measurements were performed as described in Example 1.

[4] = tested on: diabetic male BKS(D)-Leprdb/JOrlRj homozygous mice; test: Long-term in vivo treatment of diabetic mice, endothelial function as acetylcholine-induced relaxation of small mesenteric arteries; conditions: LDN-27219 8 mg/kg/12 h IP for 3 weeks vs candesartan cilexetil 3 mg/kg/24 h in drinking water
Procedure: For long-term ‘in vivo’ experiments, stocks of LDN-27219 dissolved in PEG-400 were diluted in saline solution containing SBE-b-CD to improve solubility (9 mg/mL NaCl; 15% (w/v) SBE-b-CD) […], resulting in a final concentration of 2.00 mg/mL of LDN-27219 in 10% PEG-400/90%(15% (w/v) SBE-b-CD in saline solution). For the treatment on the drinking water 1 mg/ml Candesartan cilexetil was dissolved in a vehicle of polyethylene glycol 400 (10% v/v), ethanol (5% v/v), cremophor EL (2% v/v), and tap water (83% v/v) and the pH was adjusted to 9.0 with 0.5 mol/L Na2CO3 prior to dilution to the final concentration in tap water, as previously described (Seltzer A., et al., Brain Res., 2004, 1028(1), 9-18). Final concentrations needed to achieve the desired doses of candesartan cilexetil per day were determined by measuring water consumption each 3-4 days.
For long-term ‘in vivo’ studies, diabetic homozygous mice were randomly allocated into three groups: 1) treatment with Intraperitoneal (IP) injections of LDN-27219 (8 mg/kg/12 h) and vehicle drinking water [LDN-27219 treatment group], or 2) treatment with IP injections of vehicle (each 12 h) and candesartan cilexetil (3 mg/kg/24 h) in the drinking water [candesartan treatment group], or 3) treatment with IP injections of vehicle (each 12 h) and vehicle drinking water [vehicle treatment group]. […]

NNC(=O)CSc1nc2scc(-c3ccccc3)c2c(=O)n1-c1ccccc1 [LDN-27219]
LDN-27219 potentiation of ACh-induced vasodilation in presence of irreversible TG2 inhibitor ([1]; LDN-27219 10^−6 mol/L with VA-5 10^−5 mol/L, ≈12 week rats): reduced or completely inhibited
endothelium-dependent relaxation induced by acetylcholine, compared to vehicle ([1]; LDN-27219 10^−6 mol/L, 25 min incubation, Phe 10^−5 mol/L pre-contraction, rats of different age): more potent endothelium-dependent relaxation; also recorded: increased the response to ACh
age dependence of the effect on acetylcholine-induced relaxation ([1]; LDN-27219 10^−6 mol/L, rats 6-7, ≈12 and >30 weeks old): more pronounced in old rats, than in young rats
mean blood pressure (MAP) (Male Wistar rats; LDN-27219 0.1, 1.0 and 2.0 mg/kg, intrajugular infusion during 3 minutes, carotid artery): lowers the mean blood pressure
age dependence of antihypertensive effect (AUC of MAP) (Male Wistar rats; rats >30 weeks vs 12-14 weeks old): greater effect of LDN-27219 in older animals
clearance [2]: 52.3 mL/min/kg
half-life [2]: 4.89 h
Vd ([2]; read-out: Volume of distribution): 21.4 L/kg
endothelium-derived relaxation induced by acetylcholine, compared to vehicle [3]: improves the endothelium-derived relaxation
prevention of diabetes-related endothelial dysfunction [4]: able to prevent diabetes-related endothelial dysfunction better than the long-term treatment with angiotensin II receptor antagonist candesartan cilexetil
